Reference: patent US11486880B2, “Method of measuring harshness of a surfactant” (Conopeo, Inc., priority 2018, dated 2022)

Tested on: Zein protein
Test: Harshness of surfactant by dye release from solid Zein protein-Coomassie Blue R dye complex (CIE L*a*b colour change)
Design: species or system corn
Settings: 10 wt % surfactant dilution; disc of protein-dye complex soaked 15 minutes; decrease in b* between first and second colour measurement; lower b = harsher; three replicates
Procedure: Zein powder (10 wt %) and Coomassie Blue R dye (0.1%) were added to a glass jar, and made up to 100 wt % with 90:10 aqueous ethanol (90 ethanol: 10 water). The mixture was left to disperse with stirring for 12 hours to produce protein-dye complex solution.
2 g of the protein-dye complex solution was added to four petri dishes and dried overnight under ambient conditions. The dried discs of protein-dye complex were then removed from the petri dishes and stored until required.
Dilutions (10 wt %) of four surfactants were prepared and a first colour measurement of each dilution was taken using CIEL*a*b on a Konica Minolta spectrometer.
A disc of protein-dye complex was added to each surfactant dilution, and soaked for 15 minutes. A second colour measurement was obtained of the resulting solutions. The decrease in b* value between the first and second colour measurement indicated the increase in blue colour. The lower the b value the ‘bluer’ the sample and the harsher the formulation. Three samples from each surfactant solution were measured as replicates.

Row | Compound | Average Δb*
1 | CCCCCCCCCCO[C@@H]1O[C@H](CO)[C@@H](O)[C@H](O)[C@H]1O [Decyl Glucoside] | −11.2625
2 | CCCCCCCCCCCCOS(=O)(=O)[O-].[Na+] [SDS] | −49.465
